≈ marks a conversion by molar mass, not a printed value.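 1) Cells in 96-well plates. 2) Compound, 48 h, 5 concentrations. 3) Linear interpolation between surrounding doses. 4) Unreached endpoint = highest concentration. At the GI50, growth is halved. TGI: concentration producing complete growth inhibition.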
Assays:
Experiment in all cases: DTP human tumour cell line panel, 48 h
[1] = tested on: T-47D breast
[2] = tested on: NCI/ADR-RES ovarian
[3] = tested on: COLO 205 colon
[4] = tested on: HCC-2998 colon
[5] = tested on: HS 578T breast
[6] = tested on: HL-60(TB) leukemia
[7] = tested on: TK-10 renal
[8] = tested on: DU-145 prostate
[9] = tested on: UACC-257 melanoma

Row | Compound | TGI [1] | TGI [2] | TGI [3] | TGI [4] [µM] | TGI [5] | TGI [6] | TGI [7] | TGI [8] | TGI [9] | GI50 [1] [µg/mL] | GI50 [2] [µg/mL] | GI50 [3] [µg/mL] | GI50 [5] [µg/mL] | GI50 [6] [µg/mL] | GI50 [7] [µg/mL] | GI50 [8] [µg/mL] | GI50 [9] [µg/mL]
1 | CC(C)N(C)C(=O)C12C3C4C1C1C2C3C41C#N (stereo not drawn) | > 100 µM | > 100 µM | > 100 µM | > 100 | > 100 µM | > 100 µM | > 100 µM | > 100 µM | > 100 µM |  |  |  |  |  |  |  | 
2 | CC(C)CNC(=O)Cn1c(-c2ccccc2)cc2ccccc21 | > 100 µM | > 100 µM | > 100 µM | > 100 | > 100 µM | > 100 µM | > 100 µM | > 100 µM | > 100 µM |  |  |  |  |  |  |  | 
3 | C=CC[C@@]1(C(=O)OC)[C@H](Sc2ccccc2)C1(C)C | > 100 µM | > 100 µM | > 100 µM | 96.2 | > 100 µM | 45.8 µM | > 100 µM | > 100 µM | 96.9 µM |  |  |  |  |  |  |  | 
4 | COc1cc(C2SCC(=O)N2c2ccc(Oc3ccc(Cl)cc3)c(Cl)c2)cc(OC)c1OC (stereo not drawn) | 27.5 µM | 30.4 µM | 36.6 µM | > 100 | 40.7 µM |  | 33.9 µM | 27.3 µM | 33.3 µM |  |  |  |  |  |  |  | 
5 | COc1cc(/C=C2/N=C(c3ccccc3)N(C3=NNC4(C(=O)N3)c3ccccc3-c3ccccc34)NC2=O)ccc1O | 65 µg/mL | > 150 µg/mL | > 150 µg/mL |  | 42.5 µg/mL | > 150 µg/mL | 78.2 µg/mL | 63.6 µg/mL | 51.8 µg/mL | 17 (≈ 30.6 µM) | 45.8 (≈ 82.3 µM) | 55.2 (≈ 99.2 µM) | 19.8 (≈ 35.5 µM) | 51.2 (≈ 91.9 µM) | 35.8 (≈ 64.3 µM) | 31.3 (≈ 56.3 µM) | 27.2 (≈ 49 µM)
6 | Cc1ccc(SC(=O)N2C(=S)NC(=NC3CCCCC3)C23CCCCC3)cc1 | > 100 µM | > 100 µM | > 100 µM | > 100 | > 100 µM | > 100 µM | > 100 µM | > 100 µM | > 100 µM |  |  |  |  |  |  |  | 
7 | Cc1cc(C)n(CN(Cn2nc(C)cc2C)C2CCCCC2)n1 | 76.2 µM | 42.5 µM | 32 µM | 27.9 | > 100 µM |  | > 100 µM | 62.2 µM | 78.4 µM |  |  |  |  |  |  |  | 
8 | CSc1cc(N)ccc1N=Nc1ccc(S(N)(=O)=O)cc1 | 58.3 µM | 91.2 µM | 71.3 µM | > 100 | 73.9 µM | 82.8 µM | 72 µM | > 100 µM | > 100 µM |  |  |  |  |  |  |  | 
9 | O=C(NCc1ccc(Cl)cc1)c1cc2sccc2nc1C(F)(F)F | > 100 µM | > 100 µM | > 100 µM |  | 47.6 µM |  | > 100 µM |  | > 100 µM |  |  |  |  |  |  |  | 
10 | C[N+](C)(C)c1ncnc2c1ncn2C1CCCCO1 (stereo not drawn) | > 100 µM | > 100 µM | > 100 µM |  | > 100 µM | > 100 µM | > 100 µM | > 100 µM | > 100 µM |  |  |  |  |  |  |  | 
11 | NC(N)=NS(=O)(=O)c1ccc(NC(=O)c2ccc3nc4ccccc4c(Nc4ccc(S(N)(=O)=O)cc4)c3c2)cc1 | > 100 µM | > 100 µM | > 100 µM | > 100 | > 100 µM | > 100 µM | > 100 µM | > 100 µM | > 100 µM |  |  |  |  |  |  |  | 
12 | COc1cccc(-c2cc(=O)c3ccc(C)nc3[nH]2)c1 | > 100 µM | > 100 µM | 0.247 µM | 2.12 | > 100 µM | 0.0532 µM | > 100 µM | 3.7 µM |  |  |  |  |  |  |  |  | 
13 | CC(C)(C)OC[C@H](O)CC#N | > 100 µM |  | > 100 µM | > 100 | > 100 µM | > 100 µM | > 100 µM | > 100 µM | > 100 µM |  |  |  |  |  |  |  | 
14 | Cc1ccc(-c2n[nH]c(=O)[nH]2)cc1[N+](=O)[O-] | > 100 µM | > 100 µM | > 100 µM | > 100 | > 100 µM | > 100 µM | > 100 µM | > 100 µM | > 100 µM |  |  |  |  |  |  |  | 
15 | Cc1ccc(N=Nc2c(C)c(C#N)c(=S)n(C3OC(CO)C(O)C(O)C3O)c2-c2ccccc2)cc1 (stereo not drawn) | 57.2 µM | > 100 µM | 57.4 µM | > 100 | 60.4 µM | > 100 µM | 67.6 µM | > 100 µM | > 100 µM |  |  |  |  |  |  |  | 
16 | COc1c2cc(C(C)(C)C)cc1Cc1cccc(c1O)Cc1cc(C(C)(C)C)cc(c1OC)Cc1cccc(c1O)Cc1cc(C(C)(C)C)cc(c1OC)Cc1cccc(c1O)C2 | > 100 µM | > 100 µM | > 100 µM | > 100 |  | > 100 µM |  | > 100 µM | > 100 µM |  |  |  |  |  |  |  | 
17 | COC(=O)[C@@H]1C[C@@]2(C3C=CN(C(=O)C(F)(F)F)C=C3)c3ccccc3N(C(=O)C(F)(F)F)[C@H]2N1C(=O)OC | > 100 µM | > 100 µM | > 100 µM | > 100 | > 100 µM | > 100 µM | 60.5 µM | > 100 µM | > 100 µM |  |  |  |  |  |  |  | 
18 | CC(=O)OCC=C(CCl)CCC(Br)C(C)(C)Br (mixture of isomers) | > 10 µM | > 10 µM | > 10 µM | > 10 | > 10 µM | > 10 µM | > 10 µM | > 10 µM | > 10 µM |  |  |  |  |  |  |  | 
19 | O=C1/C(=C2\Sc3c(ccc(Cl)c3Cl)C2=O)Sc2c1ccc(Cl)c2Cl | > 100 µM | > 100 µM | > 100 µM | > 100 | > 100 µM |  | > 100 µM | > 100 µM | > 100 µM |  |  |  |  |  |  |  | 
20 | O=C1c2cccc3cccc(c23)C(=O)N1CCCNOCCONCCCN1C(=O)c2cccc3cccc(c23)C1=O |  | > 100 µM | > 100 µM | > 100 | > 100 µM | > 100 µM | > 100 µM | > 100 µM | > 100 µM |  |  |  |  |  |  |  | 
21 | CCOC(=O)C(/C=N\C(=S)Nc1ccc(OCC)cc1)=C(/O)c1ccccc1 | > 100 µM | > 100 µM | > 100 µM | > 100 | > 100 µM | > 100 µM |  | > 100 µM | > 100 µM |  |  |  |  |  |  |  | 
